Tests used:
serum LH = experiment: LH suppression assay in mature male castrated rat model; type: in vivo; conditions: mature male castrated rats, po daily for 4 days in arachis oil suspension, serum LH 3 hours after last oral dose; for ED50: Rattus norvegicus, read-out: ED50 (po) required to suppress serum LH for 50% (±10%)
Description: The in vivo potency of several androgens of the invention was determined in a mature male castrated rat model, in comparison with MENT.
In this model serum LH is high (50× fold higher than with intact rats, due to the absence of the negative feedback of testicular testosterone). These rats are po treated for 4 days daily with a given compound of the invention in a suspension fluid of arachisoil. Before dosing and 3 hours after the last oral dose blood is collected via tail vene and in the serum LH is determined. Potency of the androgens (ED50) are expressed as the amount (mg/kg) of androgen which suppresses serum LH for 50% (±10%).
The rat LH Time-Resolved Immuno Fluorometric Assay (TR-IFMA) has been developed in house using home made reagents, a monoclonal catching antibody directed against the β-subunit of human chorion gonadotrophin (hCG, which cross react with rat β-subunit) and a biotin labelled detecting antibody (rabbit polyclonal antibody directed against the alfa-subunit of recombinant rat LH). Recombinant rat LH was prepared according to the methods described by Hakola et al (1997). In this two-site-IFMA, only intact rat LH is determined by a final incubation with streptavidin-europium. The detection in the IFMA is based on fluorescence of the lanthanide europium during a relative long exitation period. The concentration range of rat LH standard is 0.001-10 ng/ml, for optimal accuracy measurements of serum LH serum samples were diluted 8-times with assay buffer [Hakola, K., Boogaart, P. V., Mulders, J., de Leeuw, R., Schoonen, W., Heyst, J. V., Swolfs, A., Casteren, J. V., Huhtaniemi, I., and Kloosterboer, H. J., Recombinant rat luteinizing hormone; production by Chinese hamster ovary cells, purification and functional characterization, Molecular & Cellular Endocrinology 128, 47 (1997)].

[1] = t1/2 after incubation with human hepatocytes; type: in vitro ADME; conditions: male; cryopreserved human hepatocytes in suspension, 10 nM compound, 37° C., sampled at 0.5, 1 and 3 h, LC-MS/MS
Description: (§1) The half-life of a compound as a result of contact with human hepatocytes holds as a reliable indication of metabolic stability. As it is well known that the absorption of this class of steroids is high, this assay provides an in vitro model for oral activity in humans.
(§2) Hepatocytes collected from healthy young (25-45 year) male organ donors were cryo preserved in liquid nitrogen and kept there until use. They were thawed at 37° C. in a waterbath, placed immediately on ice, washed twice in one volume of cold (4° C.) incubation medium [William's medium E (without phenol red) with Glutamax I®, gentamicin 50 μg/ml, insulin 1 μM, hydrocortisone hemisuccinate 10 μM, fetal calf serum 0% (v/v)], counted and the viability checked by Trypan blue exclusion. Cells were incubated as suspensions in 12-wells (non-coated) plates at a nominal density of 0.5×10^6 cells/well in 1.5 ml medium at 37° C. with an air/O2/CO2 mixture (55/40/5). The plates were set on an orbital shaker at approximately 10 rpm.
(§3) The hepatocytes were incubated with 10 nM final concentration of the compound to be tested. The incubations were stopped after 0.5, 1 and 3 h by pipetting the whole incubation mixture into a glass tube and adding one volume of acetone on ice. The acetone was dried under a nitrogen flow at room temperature, the volume adjusted to 1.5 ml and the tubes were centrifuged at 4° C. at 10.000×g for 30 min. The de-proteinized supernatants were collected for LC-MS/MS analysis.

human hepatocytes = experiment: t1/2 after incubation with human hepatocytes; type: in vitro ADME; conditions: cryopreserved human hepatocytes in suspension, 10 nM compound, 37° C., sampled at 0.5, 1 and 3 h, LC-MS/MS
Description: as §1, §2, §3

Row | SMILES | melting point | ED50 (serum LH) | half-life at 10 nM [1] | also measured
1 | CC[C@@H]1CC2=CCCC[C@@H]2[C@H]2CC[C@]3(C)[C@@H](O)CC[C@H]3[C@H]12 | 155 to 157 °C |  |  | 
2 | CC[C@@H]1CC2=C(CC[C@@H](O)C2)[C@H]2CC[C@]3(C)[C@@H](O)CC[C@H]3[C@H]12 | 98 to 100 °C |  |  | 
3 | C=C[C@@H]1CC2=C/C(=N/O)CC[C@@H]2[C@H]2CC[C@]3(C)[C@@H](O)CC[C@H]3[C@@H]21 | 206 to 224 °C |  |  | 
4 | CC[C@@H]1CC2=CC(=O)CC[C@@H]2[C@H]2CC[C@]3(C)[C@@H](O)CC[C@H]3[C@H]12 [Example 1, (7α,17β)-7-Ethyl-17-hydroxyestr-4-en-3-one] | 142.5 to 143.5 °C | 2.5 mg/kg | 48 min | 
5 | C=C[C@@H]1CC2=CC(=O)CC[C@@H]2[C@H]2CC[C@]3(C)[C@@H](O)CC[C@H]3[C@@H]21 [Example 4, (7α,17β)-7-Ethenyl-17-hydroxyestr-4-en-3-one] |  | 2.5 mg/kg |  | 
6 | C/C=C/[C@@H]1CC2=CC(=O)CC[C@@H]2[C@H]2CC[C@]3(C)[C@@H](O)CC[C@H]3[C@@H]21 [Example 6a, [7α(E),17β]-17-Hydroxy-7-(1-propenyl)estr-4-en-3-one] |  |  |  | t1/2 after incubation with human hepatocytes (human hepatocytes): 30 min
7 | C[C@]12CC[C@H]3[C@@H]([C@H](C4CC4)CC4=CC(=O)CC[C@@H]43)[C@@H]1CC[C@@H]2O [Example 10, (7α,17β)-7-Cyclopropyl-17-hydroxyestr-4-en-3-one] |  |  | 30 min | 
8 | CC[C@@H]1CC2=CC(=O)CC[C@@H]2[C@@H]2[C@@H]1[C@@H]1CC[C@H](O)[C@@]1(C)C[C@@H]2C [Example 11, (7α,11β,17β)-7-Ethyl-17-hydroxy-11-methylestr-4-en-3-one] |  | 5 mg/kg |  | 
9 | C=C[C@@H]1CC2=CC(=O)CC[C@@H]2[C@@H]2[C@@H]1[C@@H]1CC[C@H](O)[C@@]1(C)C[C@@H]2C [Example 12, (7α,11β,17β)-7-Ethenyl-17-hydroxy-11-methylestr-4-en-3-one] |  | 5 mg/kg |  | 
10 | CC[C@@H]1CC2=CC(=O)CC[C@@H]2[C@H]2CC[C@]3(CC)[C@@H](O)CC[C@H]3[C@H]12 [Example 13, (7α,17β)-7,13-Diethyl-17-hydroxygon-4-en-3-one] |  |  | 48 min | 
11 | C=C[C@@H]1CC2=CC(=O)CC[C@@H]2[C@H]2CC[C@]3(CC)[C@@H](O)CC[C@H]3[C@@H]21 [Example 14, (7α,17β)-7-Ethenyl-13-ethyl-17-hydroxygon-4-en-3-one] |  |  | 20 min | 
12 | C[C@@H]1CC2=CC(=O)CC[C@@H]2[C@H]2CC[C@]3(C)[C@@H](O)CC[C@H]3[C@@H]21 [MENT, 7α-methyl-19-nortestosterone, reference compound] |  |  |  | ED50 (po) required to suppress serum LH for 50% (±10%) (serum LH): 10 mg/kg; t1/2 after incubation with human hepatocytes (human hepatocytes): 20 min
